Results: ChEMBL document CHEMBL3885881, “DrugMatrix”

Species on record: Rattus norvegicus
Assay: DrugMatrix - Regimen: Daily Repeat
Format: toxicity, organism-based, Sprague-Dawley
Design: regimen Daily Repeat, gender Male, age 6-8 weeks
Details: in vivo, iv, vehicle 100 % SALINE; for ABSOLUTE BASOPHIL / ABSOLUTE EOSINOPHIL / ABSOLUTE LYMPHOCYTE / ABSOLUTE MONOCYTE / ABSOLUTE SEGMENTED NEUTROPHIL / BASOPHIL / EOSINOPHIL / ERYTHROCYTE COUNT / HEMATOCRIT / HEMOGLOBIN / LEUKOCYTE COUNT / LYMPHOCYTE / MEAN CORPUSCULAR HEMOGLOBIN / MEAN CORPUSCULAR HEMOGLOBIN CONCENTRATION / MEAN CORPUSCULAR VOLUME / MONOCYTE / NEUTROPHIL / NUCLEATED RED BLOOD CELLS / PLATELET COUNT: tissue Blood; for ALANINE AMINOTRANSFERASE / ALBUMIN / ALKALINE PHOSPHATASE / ASPARTATE AMINOTRANSFERASE / BLOOD UREA NITROGEN / CARBON DIOXIDE / CHLORIDE / CHOLESTEROL / CREATINE PHOSPHOKINASE / CREATININE / GLUCOSE / LACTATE DEHYDROGENASE / LIPASE / PHOSPHORUS / POTASSIUM / SODIUM / TOTAL BILIRUBIN / TOTAL PROTEIN / URIC ACID: tissue Plasma
[1] = 0 mg/kg, 72 h, dose level Control, time 3 day
[2] = 0 mg/kg, 120 h, dose level Control, time 5 day
[3] = 23 mg/kg, 72 h, dose level Low, time 3 day

Nc1ccn([C@@H]2O[C@H](CO)[C@@H](O)[C@@H]2O)c(=O)n1 [CYTARABINE]
ABSOLUTE BASOPHIL [1]: 0 CELLS/uL
ABSOLUTE EOSINOPHIL [1]: 0 CELLS/uL
ABSOLUTE LYMPHOCYTE [1]: 7855.5 CELLS/uL
ABSOLUTE MONOCYTE [1]: 36.17 CELLS/uL
ABSOLUTE SEGMENTED NEUTROPHIL [1]: 575 CELLS/uL
BASOPHIL [1]: 0%
EOSINOPHIL [1]: 0%
ERYTHROCYTE COUNT [1]: 5.14 x10E6/uL
HEMATOCRIT [1]: 33.22%
HEMOGLOBIN [1]: 12.97 G/DL
LEUKOCYTE COUNT [1]: 8.47 x10E3/uL
LYMPHOCYTE [1]: 93.17%
MEAN CORPUSCULAR HEMOGLOBIN [1]: 25.28 pg
MEAN CORPUSCULAR HEMOGLOBIN CONCENTRATION [1]: 39.05 G/DL
MEAN CORPUSCULAR VOLUME [1]: 64.75 fL
MONOCYTE [1]: 0.33%
NEUTROPHIL [1]: 6.5%
NUCLEATED RED BLOOD CELLS [1]: 0 /100WBC
PLATELET COUNT [1]: 1092 x10E3/uL
ALANINE AMINOTRANSFERASE [1]: 61.67 u/L
ALBUMIN [1]: 4.03 G/DL
ALKALINE PHOSPHATASE [1]: 292.33 u/L
ASPARTATE AMINOTRANSFERASE [1]: 100.83 u/L
BLOOD UREA NITROGEN [1]: 11 mg/dL
CARBON DIOXIDE [1]: 34.67 mmol/L
CHLORIDE [1]: 100.25 MEQ/L
CHOLESTEROL [1]: 71.17 mg/dL
CREATINE PHOSPHOKINASE [1]: 554.5 u/L
CREATININE [1]: 0.31 mg/dL
GLUCOSE [1]: 151 mg/dL
LACTATE DEHYDROGENASE [1]: 88.67 u/L
LIPASE [1]: 18.83 u/L
PHOSPHORUS [1]: 10.42 mg/dL
POTASSIUM [1]: 5.7 MEQ/L
SODIUM [1]: 144.57 MEQ/L
TOTAL BILIRUBIN [1]: 0.17 mg/dL
TOTAL PROTEIN [1]: 5.8 G/DL
URIC ACID [1]: 0.52 mg/dL
ABSOLUTE BASOPHIL [2]: 0 CELLS/uL
ABSOLUTE EOSINOPHIL [2]: 53.33 CELLS/uL
ABSOLUTE LYMPHOCYTE [2]: 7739.83 CELLS/uL
ABSOLUTE MONOCYTE [2]: 74.83 CELLS/uL
ABSOLUTE SEGMENTED NEUTROPHIL [2]: 832 CELLS/uL
BASOPHIL [2]: 0%
EOSINOPHIL [2]: 0.67%
ERYTHROCYTE COUNT [2]: 5.55 x10E6/uL
HEMATOCRIT [2]: 34.77%
HEMOGLOBIN [2]: 13.62 G/DL
LEUKOCYTE COUNT [2]: 8.7 x10E3/uL
LYMPHOCYTE [2]: 89.17%
MEAN CORPUSCULAR HEMOGLOBIN [2]: 24.6 pg
MEAN CORPUSCULAR HEMOGLOBIN CONCENTRATION [2]: 39.2 G/DL
MEAN CORPUSCULAR VOLUME [2]: 62.78 fL
MONOCYTE [2]: 0.67%
NEUTROPHIL [2]: 9.5%
NUCLEATED RED BLOOD CELLS [2]: 0 /100WBC
PLATELET COUNT [2]: 1096 x10E3/uL
ALANINE AMINOTRANSFERASE [2]: 50 u/L
ALBUMIN [2]: 4.02 G/DL
ALKALINE PHOSPHATASE [2]: 271.17 u/L
ASPARTATE AMINOTRANSFERASE [2]: 84.17 u/L
BLOOD UREA NITROGEN [2]: 13.33 mg/dL
CARBON DIOXIDE [2]: 27 mmol/L
CHLORIDE [2]: 99 MEQ/L
CHOLESTEROL [2]: 68 mg/dL
CREATINE PHOSPHOKINASE [2]: 313.67 u/L
CREATININE [2]: 0.21 mg/dL
GLUCOSE [2]: 163 mg/dL
LACTATE DEHYDROGENASE [2]: 75.67 u/L
LIPASE [2]: 11.5 u/L
PHOSPHORUS [2]: 9.62 mg/dL
POTASSIUM [2]: 5.45 MEQ/L
SODIUM [2]: 143.1 MEQ/L
TOTAL BILIRUBIN [2]: 0.2 mg/dL
TOTAL PROTEIN [2]: 6.08 G/DL
URIC ACID [2]: 0.68 mg/dL
ABSOLUTE BASOPHIL [3]: 0 CELLS/uL
ABSOLUTE EOSINOPHIL [3]: 0 CELLS/uL
ABSOLUTE LYMPHOCYTE [3]: 6967 CELLS/uL
ABSOLUTE MONOCYTE [3]: 31.33 CELLS/uL
ABSOLUTE SEGMENTED NEUTROPHIL [3]: 568.33 CELLS/uL
BASOPHIL [3]: 0%
EOSINOPHIL [3]: 0%
ERYTHROCYTE COUNT [3]: 5.13 x10E6/uL
HEMATOCRIT [3]: 33.67%
HEMOGLOBIN [3]: 13.23 G/DL
LEUKOCYTE COUNT [3]: 7.57 x10E3/uL
LYMPHOCYTE [3]: 92%
MEAN CORPUSCULAR HEMOGLOBIN [3]: 25.8 pg
MEAN CORPUSCULAR HEMOGLOBIN CONCENTRATION [3]: 39.3 G/DL
MEAN CORPUSCULAR VOLUME [3]: 65.53 fL
MONOCYTE [3]: 0.33%
NEUTROPHIL [3]: 7.67%
NUCLEATED RED BLOOD CELLS [3]: 0 /100WBC
PLATELET COUNT [3]: 1145.33 x10E3/uL
ALANINE AMINOTRANSFERASE [3]: 52 u/L
ALBUMIN [3]: 4.23 G/DL
ALKALINE PHOSPHATASE [3]: 313.33 u/L
ASPARTATE AMINOTRANSFERASE [3]: 91.67 u/L
BLOOD UREA NITROGEN [3]: 11.67 mg/dL
CARBON DIOXIDE [3]: 32.33 mmol/L
CHLORIDE [3]: 99.5 MEQ/L
CHOLESTEROL [3]: 73 mg/dL
CREATINE PHOSPHOKINASE [3]: 427 u/L
CREATININE [3]: 0.31 mg/dL
GLUCOSE [3]: 163 mg/dL
LACTATE DEHYDROGENASE [3]: 93 u/L
LIPASE [3]: 13.33 u/L
PHOSPHORUS [3]: 11.2 mg/dL
POTASSIUM [3]: 5.61 MEQ/L
SODIUM [3]: 143.75 MEQ/L
TOTAL BILIRUBIN [3]: 0.1 mg/dL
TOTAL PROTEIN [3]: 6.17 G/DL
URIC ACID [3]: 0.83 mg/dL
